Data reported in patent US20070149456A1, “Epithelial sodium channel inhibiting agents and uses therefor” (University of Pittsburgh, priority 2005, published 2007).
Entries after “also recorded” stand apart in the source; their conditions may differ.

Target: T1, wild-type ENaC (Mus musculus, UniProt Q61180+Q9WU38+Q9WU39, DEL206-231)
T1 construct: expressed in transfected cells; host or cells: Xenopus laevis oocytes (cRNA injection)
T1 sequence (Q61180 with tags, fused parts or gaps DEL206-231): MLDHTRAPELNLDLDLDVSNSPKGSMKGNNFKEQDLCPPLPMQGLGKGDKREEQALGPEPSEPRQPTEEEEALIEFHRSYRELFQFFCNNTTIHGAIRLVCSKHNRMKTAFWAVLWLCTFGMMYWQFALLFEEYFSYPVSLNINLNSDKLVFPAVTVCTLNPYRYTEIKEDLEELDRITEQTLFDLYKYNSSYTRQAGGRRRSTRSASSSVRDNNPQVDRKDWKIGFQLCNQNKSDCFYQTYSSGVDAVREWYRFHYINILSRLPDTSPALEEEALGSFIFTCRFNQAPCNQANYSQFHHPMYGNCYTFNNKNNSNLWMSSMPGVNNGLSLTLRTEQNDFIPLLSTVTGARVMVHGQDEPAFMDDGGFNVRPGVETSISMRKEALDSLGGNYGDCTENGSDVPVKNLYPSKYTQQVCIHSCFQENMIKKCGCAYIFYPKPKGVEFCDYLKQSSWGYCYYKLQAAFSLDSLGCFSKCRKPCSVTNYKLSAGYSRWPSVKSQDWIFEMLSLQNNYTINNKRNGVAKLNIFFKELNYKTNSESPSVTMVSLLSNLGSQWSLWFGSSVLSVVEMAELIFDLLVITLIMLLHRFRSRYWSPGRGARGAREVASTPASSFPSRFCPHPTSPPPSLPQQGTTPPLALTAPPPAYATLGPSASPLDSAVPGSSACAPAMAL
T1 sequence (Q9WU38 1-638): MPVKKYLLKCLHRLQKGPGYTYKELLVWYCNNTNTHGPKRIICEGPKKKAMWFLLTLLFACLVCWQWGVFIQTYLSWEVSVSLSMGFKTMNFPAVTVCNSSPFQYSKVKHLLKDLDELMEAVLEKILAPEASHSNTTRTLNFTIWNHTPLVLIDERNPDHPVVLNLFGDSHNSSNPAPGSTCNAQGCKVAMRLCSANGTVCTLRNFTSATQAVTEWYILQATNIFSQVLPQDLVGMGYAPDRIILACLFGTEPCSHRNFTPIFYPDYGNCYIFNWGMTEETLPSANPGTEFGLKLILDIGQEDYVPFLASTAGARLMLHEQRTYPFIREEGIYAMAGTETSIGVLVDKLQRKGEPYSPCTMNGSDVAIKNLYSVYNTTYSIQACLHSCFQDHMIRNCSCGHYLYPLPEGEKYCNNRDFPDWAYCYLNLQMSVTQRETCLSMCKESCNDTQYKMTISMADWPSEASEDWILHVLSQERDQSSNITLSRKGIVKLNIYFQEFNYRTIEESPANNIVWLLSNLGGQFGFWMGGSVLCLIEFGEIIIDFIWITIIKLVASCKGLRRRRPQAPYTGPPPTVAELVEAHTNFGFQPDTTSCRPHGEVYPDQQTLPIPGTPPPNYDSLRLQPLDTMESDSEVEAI
T1 sequence (Q9WU39 1-655): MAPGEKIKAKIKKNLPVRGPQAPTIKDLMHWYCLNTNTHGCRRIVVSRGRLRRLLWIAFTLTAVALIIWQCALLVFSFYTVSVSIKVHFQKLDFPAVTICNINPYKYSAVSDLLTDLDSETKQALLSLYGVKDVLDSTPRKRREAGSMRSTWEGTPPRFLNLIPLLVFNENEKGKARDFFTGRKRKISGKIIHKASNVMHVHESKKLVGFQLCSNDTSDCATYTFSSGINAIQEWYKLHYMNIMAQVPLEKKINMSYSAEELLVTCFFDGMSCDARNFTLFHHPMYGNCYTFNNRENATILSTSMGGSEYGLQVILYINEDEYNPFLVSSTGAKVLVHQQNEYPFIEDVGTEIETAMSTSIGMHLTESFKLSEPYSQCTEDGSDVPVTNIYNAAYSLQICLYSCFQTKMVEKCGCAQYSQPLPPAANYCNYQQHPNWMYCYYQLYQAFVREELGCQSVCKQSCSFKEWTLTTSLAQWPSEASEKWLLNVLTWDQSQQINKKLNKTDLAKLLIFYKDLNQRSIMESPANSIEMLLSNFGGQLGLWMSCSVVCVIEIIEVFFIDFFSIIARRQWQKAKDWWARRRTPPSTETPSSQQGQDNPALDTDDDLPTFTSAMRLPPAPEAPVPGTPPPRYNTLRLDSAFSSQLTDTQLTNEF
Assay: Single channel cell-attached patch clamp in oocytes expressing wild-type ENaC, pipette back filled with peptide
Type: cell-based
Experimental: Single Channel Studies—Bath and pipette solutions contained (in mM) 110 LiCl, 2 CaCl2, 2 KCl, and 10 Hepes, pH 7.4. Experiments were performed as previously described (Carattino, M. D., Sheng, S., and Kleyman, T. R. (2005), Mutations in the pore region modify epithelial sodium channel gating by shear stress, J Biol. Chem. 280, 4393-4401 33). Single channel currents were recorded in the cell-attached configuration of patch clamp, acquired at 5 kHz and filtered at 1 kHz by a 4-pole low pass Bessel filter. Single channel currents were further filtered at 100-200 Hz with a Gaussian filter for display and analysis. Recordings were performed at an applied pipette potential of +60 mV.
For experiments performed with α-26, the tip of the pipette was filled with standard patch solution. Pipette resistances were similar in control (7.8±0.4 MΩ) and α-26-treated patches (6.9±0.6 MΩ) (p=0.30, unpaired t test). […] Unitary currents, at an applied pipette potential of +60 mV, were similar in both control (0.42±0.2 pA, n=5) and α-26-containing patches (0.39±0.2 pA, n=7) (p=0.32, unpaired t test). […] At the beginning of the experiment open times were similar to that observed in controls (FIG. 4B). Over the course of the experiment openings decreased and were shorter in duration compared with control until channels were fully closed. […]

Ac-DLRGALPHPLQRLRTPPPPNPARSAR-NH2 [α-26]
unitary currents (applied pipette potential +60 mV, α-26 10 μM in pipette): 0.39±0.2 pA | product of the number of channels and open probability (NPo) compared with controls (pipette backfilled with α-26 10 μM): reduces ENaC open probability; also recorded: reduction
